Like-named read-outs stand apart in the source and are kept apart here.
Legend:
SARS-CoV-2 [1] = conditions: cited from earlier work; for CaCo2 CPE inhibition %: Caco-2, 20 µM
SARS-CoV-2 [2] = conditions: cited from earlier work; for Vero-E6 CPE inhibition %: 10 µM
Vero-E6 cells = assay: cells; assay type: cell-based
[3] = Chlorocebus sabaeus, Vero C1008, 24 h; read-out: PLD Effect in % 5 µM
[4] = Chlorocebus sabaeus, Vero C1008, 24 h; read-out: PLD Effect in % 10 µM
[5] = Chlorocebus sabaeus, Vero C1008, 24 h; read-out: PLD Effect in % 20 µM
[6] = Chlorocebus sabaeus, Vero C1008; read-out: PLD EC50
[7] = Chlorocebus sabaeus, Vero C1008, read-out: PLD EC50 µM

Structure (SMILES)	CaCo2 CPE inhibition % (SARS-CoV-2 [1])	Vero-E6 CPE inhibition % (SARS-CoV-2 [2])	activation at 5 µM (Vero-E6 cells; [3]) [%]	activation at 10 µM (Vero-E6 cells; [4]) [%]	activation at 20 µM (Vero-E6 cells; [5]) [%]	PLD Effect in % 5 µM (Vero-E6 cells; 5 µM)	PLD Effect in % 10 µM (Vero-E6 cells; 10 µM)	PLD Effect in % 20 µM (Vero-E6 cells; 20 µM)	other results
CN(C)C/C=C/C(=O)Nc1cc2c(Nc3ccc(F)c(Cl)c3)ncnc2cc1O[C@H]1CCOC1 [Afatinib, reference compound]	60.16%	-0.39%	129	249	146	–	–	–	–
CCN(CC)CC1CCN(c2ncc3ncnc(Nc4ccc(F)c(Cl)c4)c3n2)CC1 [BIBU-1361, reference compound]	78.51%	-0.24%	–	–	–	160.51%	180.15%	-42.53%	EC50 (Vero-E6 cells; read-out: PLD EC50): 0.63 µM
CNCc1ccc(C)c(NC(=O)c2ccc(Nc3nc(-c4ccccc4)c4ccccc4n3)cc2)c1 [BMS-833923 (XL139), reference compound]	68.77%	-0.37	72.2	59.1	-39.6	–	–	–	EC50 (Vero-E6 cells; [6]): 1.11 µM
O=C(Nc1ccc(CN2CCOCC2)cc1)c1ccc(-c2cccc(Cl)c2)o1 [CID-2011756, reference compound]	96.96%	0.15	–	–	–	27.66%	31.32%	55.98%	EC50 (Vero-E6 cells; read-out: PLD EC50): > 20 µM
Cc1cc(Nc2ncc(Cl)c(Nc3ccccc3S(=O)(=O)C(C)C)n2)c(OC(C)C)cc1C1CCNCC1 [Ceritinib, reference compound]	59.98%	-0.35%	91.9	116	137	–	–	–	EC50 (Vero-E6 cells; [7]): 2.18 µM
O=C(c1ccc(F)c(F)c1Nc1ccc(I)cc1F)N1CC(O)([C@@H]2CCCCN2)C1 [Cobimetinib, reference compound]	61.58%	-0.31%	112	135	133	–	–	–	EC50 (Vero-E6 cells; [7]): 1.34 µM
c1ccc(CNc2nc(NCc3ccccc3)c3ccccc3n2)cc1 [DBeQ, reference compound]	100.89%	-0.3	–	–	–	73.45%	88.88%	-36.11%	EC50 (Vero-E6 cells; read-out: PLD EC50): 1.19 µM
CCN1CCN(Cc2ccc(C(=O)Nc3ccc(C)c(Oc4ccc5c(c4)CC(=O)N5)c3)cc2C(F)(F)F)CC1 [DDR1-IN-1, reference compound]	77.58%	-0.37%	55.7	75.8	21.8	–	–	–	–
O=C1Nc2ccc(Cl)c3c2C1(CCCCN1CC=C(c2ccc(Cl)cc2)CC1)CCC3 (centres unmarked) [DR-4485, reference compound]	82.83%	-0.26%	–	–	–	94.34%	201.85%	-16.80%	–
COC(=O)C1=C(C)NC(C)=C(C(=O)OCCCN2CCC(c3ccccc3)(c3ccccc3)CC2)[C@@H]1c1cccc([N+](=O)[O-])c1 [Dexniguldipine, reference compound]	97.57%	-0.15%	–	–	–	–	–	–	activation at 5 µM (Vero-E6 cells; Chlorocebus sabaeus, Vero C1008, 24 h, read-out: PLD Effect in % 5 µM): 83.1%; activation at 10 µM (Vero-E6 cells; Chlorocebus sabaeus, Vero C1008, 24 h, read-out: PLD Effect in % 10 µM): 115%; activation at 20 µM (Vero-E6 cells; Chlorocebus sabaeus, Vero C1008, 24 h, read-out: PLD Effect in % 20 µM): 127%; EC50 (Vero-E6 cells; [7]): 2.48 µM
COc1ccc(NC(=O)c2ccc(-c3ccc(-c4noc(C)n4)cc3C)cc2)cc1N1CCN(C)CC1 [GR-127935, reference compound]	53.73%	-0.76%	136	162	-40.2	–	–	–	EC50 (Vero-E6 cells; [7]): 1.12 µM
CCCCN1[C@@H]2CC[C@H]1C[C@@H](OC(c1ccc(F)cc1)c1ccc(F)cc1)C2 [JHW-007, reference compound]	93.14%	-0.32%	–	–	–	115.34%	112.39%	86.69%	EC50 (Vero-E6 cells; read-out: PLD EC50): 0.71 µM
CSc1ccccc1Nc1nc(N2CCNCC2)nc2c(NCC3CC3)ncnc12 [KHK-IN-1, reference compound]	toxic	toxic	–	–	–	toxic	toxic	toxic	CaCo2 EC50 µM (SARS-CoV-2 [1]): toxic; Vero-E6 EC50 µM (SARS-CoV-2 [2]): toxic; PLD EC50 µM (Vero-E6 cells): toxic
O=C(NC1CCN(CCCCC2(C(=O)NCC(F)(F)F)c3ccccc3-c3ccccc32)CC1)c1ccccc1-c1ccc(C(F)(F)F)cc1 [Lomitapide, reference compound]	77.37%	-0.39%	82.8	169	-28.6	–	–	–	–
CC(C)c1ccc2c(c1)CC[C@H]1[C@](C)(CN)CCC[C@]21C [Lylamine, reference compound]	76.43%	-0.36%	–	–	–	104.48%	133.55%	-41.01%	–
COc1cc(C(=O)NC2CCN(C)CC2)c(F)cc1Nc1ncc2c(n1)N(C1CCCC1)CC(F)(F)C(=O)N2C [TAK-960, reference compound]	91.64%	2.67%	–	–	–	–	–	–	–
OCCNC1CCCc2c1[nH]c1ccc(-c3ccccc3)cc21 (centres unmarked) [casin, reference compound]	71.19%	–	–	–	–	116.35%	193.97%	134.63%	EC50 (Vero-E6 cells; read-out: PLD EC50): 3.31 µM
Cc1ccc(NC(=O)c2ccc(CN3CCN(C)CC3)cc2)cc1Nc1nc(-c2cccnc2)cs1 [masitinib (AB1010), masitinib, reference compound]	107.90%	–	43.1	45.2	53.3	–	–	–	CaCo2 CPE assay (active) (SARS-CoV-2 [1]; Caco-2): active; PLD induction assay (active) (Vero-E6 cells): active; EC50 (Vero-E6 cells; [6]): 2.57 µM

From publication PMC13083723 (Patterns, 2026)
